{"source": "paper PMC12765074", "about": "“Mechanistic insights into enterocin C targeting the undecaprenyl phosphate recycling protein BacA” (The Journal of Biological Chemistry, 2025)", "test_system": "EntC1", "test": "ITC, EntC1", "assay_type": "binding", "conditions": "titration of EntC2 with EntC1", "data": [{"smiles": "CC[C@H](C)[C@H](NC(=O)CNC(=O)[C@H](CCCCN)NC(=O)[C@H](C)NC(=O)[C@H](CC(C)C)NC(=O)CNC(=O)[C@H](C)NC(=O)[C@@H](NC(=O)[C@H](Cc1ccccc1)NC(=O)[C@H](CC(=O)O)NC(=O)[C@H](Cc1ccc(O)cc1)NC(=O)[C@H](C)NC(=O)[C@@H]1CCCN1C(=O)[C@H](CCC(N)=O)NC(=O)[C@H](CC(C)C)NC(=O)[C@H](Cc1c[nH]c2ccccc12)NC(=O)[C@@H]1CCCN1C(=O)[C@H](CC(C)C)NC(=O)[C@H](Cc1c[nH]c2ccccc12)NC(=O)[C@H](CCCCN)NC(=O)CNC(=O)[C@@H]1CCCN1C(=O)CN)C(C)C)C(=O)NCC(=O)N[C@@H](CCCCN)C(=O)N[C@@H](CCC(=O)O)C(=O)NCC(=O)N[C@@H](CC(N)=O)C(=O)N[C@@H](CCCCN)C(=O)N[C@@H](CC(N)=O)C(=O)N[C@@H](CCCCN)C(=O)N[C@@H](Cc1c[nH]c2ccccc12)C(=O)N[C@@H](CCCCN)C(=O)N[C@@H](CC(N)=O)C(=O)N[C@H](C(=O)O)C(C)C", "note": "(single isomer, unassigned) [EntC2]", "values": [{"measurement": "binding to EntC1 (ITC)", "result": "No binding"}]}]}
